From patent EP1373298B1, “A COMPOSITION CONTAINING NOVEL COMPOUND CORNICULATONIN HAVING ANTIFUNGI PROPERTIES AND A PROCESS FOR PREPARING THE SAME” (COUNCIL OF SCIENTIFIC AND INDUSTRIAL RESEARCH, priority 2001, dated 2002)

What was measured:
[1] = test system: T. tonsurans; assay: Disk diffusion assay, zone of inhibition; assay type: cell-based; conditions: 250 µg. disk^-1, incubated 42-120 hrs at room temperature
Excerpt: (§1) Agar: Czapek Malt Agar (Himedia laboratories Ltd.) was used for culturing Microsporum gypseum, Trichophyton mentagrophytes T. tonsurans, T. violaceum, Aspergillus fresenii and A. niger. Mycological Agar (Himedia Laboratories Ltd) was used for Cryptococcus neoformans and Candida sp.
(§2) Pathogenic fungal strains of yeast and filamentous fungi identified and gifted by Dr. Savio from Goa Medical College, Bambolim, were used for the test. Strains of Aspergillus were isolated from the infected wheat bread with sterile needle; fungal material was surface sterilized using 0.5 % sodium hypochlorite for 2-3 minutes, and then washed with small brush in sterile distilled water. Washed fungal material was transferred using needle into the sterile culture media and subcultured for purification by following standard methods (Collins and Taylor, 1967). Taxonomic identification was done by using various standard keys (Ainswort et al., 1973; Onion et al., 1981) and identification confirmed by Alka Pandey of Agarkar Research Institute, Pune.
(§3) Yeast strains (Candida sp. and Cryptococcus neoformans) were maintained by single colony transfer on mycological agar (Himedia Laboratories Ltd) at the refrigeration temperature (3-5°C). Filamentous fungi were maintained on Czapek Malt agar slants at refrigeration temperature (3-5°C), until needed for the assay.
(§4) Disk diffusion assay: The disk diffusion assay was used for screening of antifungal activity of the compound. The stock solution for the test was prepared by dissolving 5 mg of the compound of formula 1 in 200 µl dimethylsulphoxide (DMSO). From the stock solution 10 µl were spread on the paper disc so as to obtain the final concentration of 250 µg disk^-1. Control disk was applied reconstituted with only dimethylsulphoxide and were dried at 28-29°C. Completely dried disk was applied to innoculated plates. The plates were incubated at room temperature for the period between 42- 120 hrs. to obtain maximum growth in the culture media. The zones of inhibition around the disks were measured.

[2] = test system: Aspergillus fresenii; assay: Disk diffusion assay, zone of inhibition; assay type: cell-based; conditions: 250 µg. disk^-1, incubated 42-120 hrs at room temperature
Excerpt: as §1, §2, §3, §4

[3] = test system: Cryptococcus neoformans; assay: Disk diffusion assay, zone of inhibition; assay type: cell-based; conditions: 250 µg. disk^-1, incubated 42-120 hrs at room temperature
Excerpt: as §1, §2, §3, §4

[4] = test system: Candida sp.; assay: Disk diffusion assay, zone of inhibition; assay type: cell-based; conditions: 250 µg. disk^-1, incubated 42-120 hrs at room temperature
Excerpt: as §1, §2, §3, §4

[5] = test system: T. violaceum; assay: Disk diffusion assay, zone of inhibition; assay type: cell-based; conditions: 250 µg. disk^-1, incubated 42-120 hrs at room temperature
Excerpt: as §1, §2, §3, §4

[6] = test system: Trichophyton mentagrophytes; assay: Disk diffusion assay, zone of inhibition; assay type: cell-based; conditions: 250 µg. disk^-1, incubated 42-120 hrs at room temperature
Excerpt: as §1, §2, §3, §4

[7] = test system: Microsporum gypseum; assay: Disk diffusion assay, zone of inhibition; assay type: cell-based; conditions: 250 µg. disk^-1, incubated 42-120 hrs at room temperature
Excerpt: as §1, §2, §3, §4

[8] = test system: Aspergillus niger; assay: Disk diffusion assay, zone of inhibition; assay type: cell-based; conditions: 250 µg. disk^-1, incubated 42-120 hrs at room temperature
Excerpt: as §1, §2, §3, §4

[9] = test system: T. tonsurans; assay: Minimum inhibitory concentration (MIC), disk diffusion method; assay type: cell-based; conditions: disks of 50 to 3.12 µg, 42-120 hrs at room temperature
Excerpt: as §1, §2, §3
(§5) Innocula were adjusted to 100 µl of Cryptococcus neoformans, Candida sp., Microsporum gypseum, Trichophyton tonsurans, T. violaceum and Trichophyton mentagrophytes and spread on the appropriate plates, excess moisture was allowed to absorb for 10 minutes before applying disks. Immediately prior to the assay, the testing compound of formula 1, object of the present invention, the reference compounds amphotericin B and nystatin, potency approx:750µ/mg and 4800USPunit/mg respectively, were reconstituted in triplicate in dimethylsulfoxide. […] From the stock solution 10 µl were spread on the paper disk so as to obtain final concentration of 50 µg disc^-1, 25µg disc^-1, 12.5 µg disc^-1, 6.25 µg disc^-1 and 3.12 µg disk^-1. Disks were dried at reduced pressure in the dessicator, at 28-29°C and applied to inoculated plates.
(§6) In testing, the compound of formula 1 was reconstituted in dimethylsulfoxide (DMSO) immediately prior to all assays. Dimethylsulfoxide (DMSO) alone had no detectable inhibitory effect on any of the tested microbes. Compound of formula 1 was tested against a diverse collection of yeast and filamentous fungi, some of which are resistant to the reference compound nystatin. Filamentous fungi were nystatin resistant.

[10] = test system: Aspergillus fresenii; assay: as above; assay type: cell-based; conditions: disks of 50 to 3.12 µg, 42-120 hrs at room temperature
Excerpt: as §1, §2, §3, §5, §6

[11] = test system: Cryptococcus neoformans; assay: as above; assay type: cell-based; conditions: disks of 50 to 3.12 µg, 42-120 hrs at room temperature
Excerpt: as §1, §2, §3, §5, §6

[12] = test system: Candida sp.; assay: as above; assay type: cell-based; conditions: disks of 50 to 3.12 µg, 42-120 hrs at room temperature
Excerpt: as §1, §2, §3, §5, §6

[13] = test system: T. violaceum; assay: as above; assay type: cell-based; conditions: disks of 50 to 3.12 µg, 42-120 hrs at room temperature
Excerpt: as §1, §2, §3, §5, §6

[14] = test system: Trichophyton mentagrophytes; assay: as above; assay type: cell-based; conditions: disks of 50 to 3.12 µg, 42-120 hrs at room temperature
Excerpt: as §1, §2, §3, §5, §6

[15] = test system: Microsporum gypseum; assay: as above; assay type: cell-based; conditions: disks of 50 to 3.12 µg, 42-120 hrs at room temperature
Excerpt: as §1, §2, §3, §5, §6

[16] = test system: Aspergillus niger; assay: as above; assay type: cell-based; conditions: disks of 50 to 3.12 µg, 42-120 hrs at room temperature
Excerpt: as §1, §2, §3, §5, §6

[17] = test system: Cladosporium cucumerinum; conditions: TLC bioassay; cited from earlier work

## 3-O-α-rhamnopyranosyl-rhamnopyranosyl-glucopyranosyl-glucoronopyranosylgluco-pyrano side 16 α-hydroxy-13, 28-epoxy oleanane [Compound 1]
[1]
  zones of inhibition: 14 mm
[2]
  zones of inhibition: 10 mm
[3]
  zones of inhibition: 9 mm
[4]
  zones of inhibition: 9 mm
[5]
  zones of inhibition: 13 mm
[6]
  zones of inhibition: 12 mm
[7]
  zones of inhibition: 14 mm
[8]
  zones of inhibition: 4 mm
[9]
  MIC: 12.5 - 25 µg. disk^-1
[10]
  MIC: 25 -50 µg. disk^-1
[11]
  MIC: 6.25 -12.5 µg. disk^-1
[12]
  MIC: 6.25 -12.5 µg. disk^-1
[13]
  MIC: 25 - 50 µg. disk^-1
[14]
  MIC: 25 - 50 µg. disk^-1
[15]
  MIC: 12.5 - 25 µg. disk^-1

## C[C@@H]1[C@H](O)[C@@H](C)/C=C/C=C/C=C/C=C/C=C/C=C/C=C/[C@H](O[C@@H]2O[C@H](C)[C@@H](O)[C@H](N)[C@@H]2O)C[C@@H]2O[C@](O)(C[C@@H](O)C[C@@H](O)[C@H](O)CC[C@@H](O)C[C@@H](O)CC(=O)O[C@H]1C)C[C@H](O)[C@H]2C(=O)O [Amphotericin B, reference compound]
[9]
  MIC: 6.25 - 12.5 µg. disk^-1
[10]
  MIC: 12.5 -25 µg. disk^-1
[11]
  MIC: 3.12 - 6.25 µg. disk^-1
[12]
  MIC: 3.12 - 6.25 µg. disk^-1
[13]
  MIC: 6.25 -12.5 µg. disk^-1
[14]
  MIC: 6.25 - 12.5 µg. disk^-1
[15]
  MIC: 6.25 -12.5 µg. disk^-1
[16]
  MIC: 12.5 -25 µg. disk^-1

## C[C@@H]1[C@H](O)[C@@H](C)/C=C/C=C/CC/C=C/C=C/C=C/C=C/C(O[C@H]2O[C@H](C)[C@@H](O)[C@H](N)[C@@H]2O)CC2O[C@](O)(CC(O)C(O)CCC(O)CC(O)CC(O)CC(=O)O[C@H]1C)CC(O)C2C(=O)O (some centres unmarked) [Nystatin]
[11]
  MIC: 6.25 - 12.5 µg. disk^-1
[12]
  MIC: 6.25 -12.5 µg. disk^-1

## Sakurasaponin
[17]
  antifungal at: 1 µg
